The source of these data is patent US7094869B2, “Low molecular weight peptidomimetic growth hormone secretagogues” (Genentech, Inc., priority 1994, dated 2006).

The test system of one data set is growth hormone secretion. As to the kind of experiment: GHRP induced growth hormone secretion, intravenous administration (Rat IV). Format: in vivo. An outline of the steps: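 Female Sprague Dawley rats (24-30 days, 50-90 g) under intraperitoneal pentobarbitone received graded intravenous tail-vein peptide doses in pH 5.0 sodium acetate/mannitol buffer 20 min post-anaesthesia. Blood by cardiac puncture 10 min after dosing; serum GH measured by rat GH ELISA in duplicate.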

In another data set the target is rat pituitary cells (Rattus norvegicus, UniProt O08725). As to the kind of experiment: Rat “pit” cell challenges: combinations with GHRP-6/GHRH, desensitization, somatostatin suppression, GHRP antagonist. It is filed as cell-based.
The subject of the next data set is LH. As to the kind of experiment: LH release from pituitary cells (RIA). The note with it: 100 nM; listed as (inip)-bbFK-NH2. Format: cell-based, rat. On the procedure:
(§1) Dispersion: Adult female Sprague-Dawley (160-180 g., Charles River) rats were group-caged in a 12:12 light:dark cycle with food and water available ad libitum. Pituitaries from ten rats were removed, the posterior pituitary discarded and the anterior pituitary placed in Hanks' Balanced Salt Solution (HBSS: without calcium chloride, w/o magnesium chloride, w/o magnesium sulfate; Gibco) containing 20 mM HEPES (Gibco) and 100 U/ml penicillin streptomycin (PS: JRH Biosciences). Under sterile conditions, pituitaries were rinsed twice then minced into small fragments with a razor blade. Fragments were resuspended in 5 ml of HBSS/HEPES containing 20 mg collagenase (Serva 17449) and […] of 1 mg/ml DNase (Sigma) for a 40 min. incubation in a 37° C. gyrotory water bath shaker (New Brunswick Scientific Model G76; setting 10). […] The cells were centrifuged 1000× g for 5 min, resuspended, counted and plated at a final cell concentration of 100,000 cells/ml. […] STATISTICS: The mean for each group was determined and analyzed by one-way analysis of variance with a post-hoc Student-Newman-Keuls. […] The EC50 was calculated using a 4-parameter curve-fit program (Kaleidagraph). […] RIA of pituitary hormones: LH, FSH, TSH, and Prolactin were determined with commercially available kits from Amersham, and ACTH levels were determined by a RIA kit from ICN. […]

For a further data set, the system named is FSH. As to the kind of experiment: FSH release from pituitary cells (RIA). The note with it: 100 nM; listed as (inip)-bbFK-NH2. Format: cell-based, rat. Here is the method:
as §1

Data set [1] is described as follows: Combination GHRP and IGF-1 treatment of obese Zucker Diabetic Fatty (ZDF) rats. It is filed as in vivo, rat. Here is the method:
Ten lean ZDF rats served as an additional control group.
This GHRP was given by sc. injection twice daily, each dose of 100 μl therefore containing 50 μg/injection or 100 μg/day.
Recombinant human IGF-1 (rhIGF-1) at 13.8 mg/ml in acetate buffer was loaded into osmotic minipumps (Alza, Palo Alto, model 2ML4, pump rate 2.29 μl/hr for 28 days, fill volume 2064 μl). Other pumps were filled with acetate buffer. […] The delivered dose of rhIGF-1 was therefore 758 μg/day. Recombinant human growth hormone (rhGH, Lot R9092AX, Genentech Inc.) was diluted in sterile water to 2.5 g/l and a 100 μl injection given twice daily (250 μg/injection, or 500 μg/day).
The next day the osmotic pumps were inserted into rats. […] All rats not receiving rhIGF-1 containing pumps were implanted with pumps delivering the acetate buffer excipient.
On day 24 blood was withdrawn after a 4 hour fast and 1.5 U/kg of regular insulin was injected i.p. and a second blood sample taken 30 minutes later. The rats were then sacrificed using carbon dioxide, bled from the heart, and organs taken. Serum glucose was measured by standard automated procedures.
Data are presented as mean±standard error (SE) of the mean with 8 rats per group.

The structures appear in SMILES notation. Entries after “also recorded” stand apart in the source; their conditions may differ.

rat pituitary cells, sequence (O08725 whole entry): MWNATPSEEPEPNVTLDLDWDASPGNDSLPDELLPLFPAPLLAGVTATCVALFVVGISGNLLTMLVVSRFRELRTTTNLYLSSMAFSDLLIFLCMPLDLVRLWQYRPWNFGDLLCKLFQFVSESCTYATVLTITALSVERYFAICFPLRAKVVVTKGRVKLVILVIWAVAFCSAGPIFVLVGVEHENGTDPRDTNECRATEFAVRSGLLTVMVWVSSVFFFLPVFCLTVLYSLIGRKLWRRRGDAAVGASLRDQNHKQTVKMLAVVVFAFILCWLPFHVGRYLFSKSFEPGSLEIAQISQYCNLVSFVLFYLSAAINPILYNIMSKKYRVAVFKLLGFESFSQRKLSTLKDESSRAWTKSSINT
Description for rat pituitary cells: Dispersion: Adult female Sprague-Dawley (160-180 g., Charles River) rats were group-caged in a 12:12 light:dark cycle with food and water available ad libitum. Pituitaries from ten rats were removed, the posterior pituitary discarded and the anterior pituitary placed in Hanks' Balanced Salt Solution (HBSS: without calcium chloride, w/o magnesium chloride, w/o magnesium sulfate; Gibco) containing 20 mM HEPES (Gibco) and 100 U/ml penicillin streptomycin (PS: JRH Biosciences). Under sterile conditions, pituitaries were rinsed twice then minced into small fragments with a razor blade. Fragments were resuspended in 5 ml of HBSS/HEPES containing 20 mg collagenase (Serva 17449) and 200 ml of 1 mg/ml DNase (Sigma) for a 40 min. incubation in a 37° C. gyrotory water bath shaker (New Brunswick Scientific Model G76; setting 10). After the incubation, fragments were triturated to yield small clumps and single cells. The cells were centrifuged 1000× g for 5 min, resuspended, counted and plated at a final cell concentration of 100,000 cells/ml. Incubation media was DME low glucose media w/NaHCO3 (Gibco) containing 20 mM hepes, 100 U/ml PS and 10% FBS (Hyclone A-111-L). Cells were plated at 0.5 ml per well in 48 well plates (Falcon) and incubated at 37° C. in 5% C02 for three days. […] The highest concentration of DMSO in media was 0.1%. Stock solutions (1 mM) of rat GHRH, somatostatin (Sigma) and GHRP antagonist HwkWfK were made fresh in media and diluted appropriately. The media used in all challenges and washing steps was DME low glucose with 20 mM Hepes, 100 U/ml PS, 10% FBS. Media was warmed to 37° C. and gassed by placing it into the incubator prior to challenge. On day three, the media was discarded and fresh media (approximately 1 ml) added for the first of three washes. After the last wash, the plate was placed back in the incubator for a 15 min pre-incubation. Then cells were washed 2× (with warmed and gassed media) and fresh 0.5 ml media were added for the second 15 min. pre-incubation. After the second pre-incubation cells were washed 2× as above and 0.5 ml of control and test solutions were added for a final 15 min incubation. After this incubation, the media were removed for subsequent GH ELISA. GH ELISA: A two-site ELISA was used to determine rat GH concentration in the media. Briefly, goat anti-rat GH antibody (lot#19164-20) was used to coat Nunc immunoplates overnight. After blocking and washing, standard (rat GH reference preparation: Parlow) and challenge media is diluted 1:20 prior to GH assay were added for a 1 hr room temperature incubation. STATISTICS: The mean for each group was determined and analyzed by one-way analysis of variance with a post-hoc Student-Newman-Keuls. Significance is defined as P<0.05. The EC50 was calculated using a 4-parameter curve-fit program (Kaleidagraph). Three to four independent EC50s were used to derive the mean and SEM.

For `NCCCC[C@H](NC(=O)[C@H](Cc1ccccc1)NC(=O)[C@@H](Cc1ccc2ccccc2c1)NC(=O)[C@@H](Cc1ccc2ccccc2c1)NC(=O)C1CCNCC1)C(N)=O` [(inip) b b F K amide, (inip)-DβNal-DβNal-Phe-Lys-amide], the “RAT IV ED50” value in the data set on growth hormone secretion (Table III, iv injection, serum GH 10 min after injection) turned out to be 0.2 µg. Moreover, in the data set with growth hormone secretion (acute intravenous injection, 80 gram rats, doses 1.0, 0.2, 0.04 μg/injection), the “ED50 for induction of GH secretion” value worked out at 0.2 μg/rat. Further, the “increase in GH levels over control” value on rat pituitary cells (100 nM) is 3 fold. Further, the “GH release in combination with GHRH” value on rat pituitary cells (GHRP 100 nM plus GHRH 10 or 100 nM, listed as (inip)-bbFK-NH2) is recorded as “show synergy with 10 nM GHRH; also recorded: showed synergy with GHRH”. Besides, at rat pituitary cells (both at 100 nM, listed as (inip)-bbFK-NH2), the “GH release in combination with GHRP-6” value was “no additional or synergistic increase was observed; also recorded: no additional increase was observed”. Moreover, at rat pituitary cells (coincubation with 20 nM somatostatin, listed as (inip)-bbFK-NH2), the “GH release in the presence of 20 nM somatostatin” value is listed as “suppressed this enhanced release”. The “GH release after sequential 15 min incubations with fresh compound (desensitization)” value on rat pituitary cells (three sequential 15 min incubations, 100 nM) is recorded as “no significant GH release compared to control”. In the data set with LH, the LH release entry is recorded as “had no effect on these hormone concentrations; also recorded: unchanged”. The FSH release entry with FSH is given as “had no effect on these hormone concentrations; also recorded: unchanged”. Besides, in data set [1] (Day 2, obese ZDF male rats, GHRP 100 μg/d sc injection, rhIGF-1 758 μg/d pump, rhGH 500 μg/d), the body weight gain was 18.3 ± 1.0 g. Further, in data set [1] (rat, in vivo), the “effect on insulin sensitivity (diabetogenic effect)” value is “greatly reduced effect on insulin sensitivity (diabetogenic effect) than rhGH”, the fasting blood glucose is given as 386±63 mg % and the serum insulin was determined as 39 ± 6 ng/mL.
